Peptide text beside a SMILES is read from it. * marks the point of attachment. Cbz = O=C(OCc1ccccc1)*; CH2F = FC*

The values below come from US7528239B1, “Receptor that binds trail” (Immunex Corporation, priority 1997, dated 2009).

Test [1] concerns CV-1/EBNA cells expressing TRAIL-R. Put plainly: TRAIL-R-induced death of transfected CV-1/EBNA cells (lacZ co-transfection, X-gal staining). In kind it is cell-based, African green monkey. Conditions: 48 hours after transfection. How it is done: CV-1/EBNA cells were transfected, by the DEAE-dextran method, with expression plasmids for TRAIL-R (pDC409-TRAIL-R), together with a threefold excess of empty expression vector (pDC409) in the presence or absence of z-VAD-fmk (10 μM; in the culture medium), or together with a threefold excess of expression vector pDC409-CrmA, pDC409-p35, or pDC409-FADD-DN. In addition, 400 ng/slide of an expression vector for the E. coli lacz gene was co-transfected together with all DNA mixes. The transfected cells were cultured in chambers mounted on slides.
48 hours after transfection, cells were washed with PBS, fixed with glutaraldehyde and incubated with X-gal (5-bromo-4-chloro-3-indoxyl-β-D-galactopyranoside). Cells expressing β-galactosidase stain blue. A decrease in the percentage of stained cells indicates loss of β-galactosidase expression, and correlates with death of cells that express the protein(s) co-transfected with the lacz gene.

Test [2] addresses T1, full length human TRAIL-R (Homo sapiens, UniProt O14763, V191A).
T1 construct: expressed in transfected cells; host or cells: CV-1/EBNA cells, co-transfected with pDC409-CrmA
Description: FACS binding assay of LZ-TRAIL to CV-1/EBNA cells expressing recombinant TRAIL-R. As to conditions: LZ-TRAIL 5 μg/ml; cells co-transfected with TRAIL-R and CrmA vectors compared to CrmA vector alone; 48 hours after transfection. As for the experimental part: Full length human TRAIL-R was expressed and tested for the ability to bind TRAIL. The binding assay was conducted as follows.
A fusion protein comprising a leucine zipper peptide fused to the N-terminus of a soluble TRAIL polypeptide (LZ-TRAIL) was employed in the assay. An expression construct was prepared, essentially as described for preparation of the Flag®-TRAIL expression construct in Wiley et al. (Immunity, 3:673-682, 1995; hereby incorporated by reference), except that DNA encoding the Flag® peptide was replaced with a sequence encoding a modified leucine zipper that allows for trimerization. The construct, in expression vector pDC409, encoded a leader sequence derived from human cytomegalovirus, followed by the leucine zipper moiety fused to the N-terminus of a soluble TRAIL polypeptide. The TRAIL polypeptide comprised amino acids 95-281 of human TRAIL (a fragment of the extracellular domain), as described in Wiley et al. (supra). […]
CV-1/EBNA cells were co-transfected with pDC409-TRAIL-R together with pDC409-CrmA, or with pDC409-CrmA alone. […] 48 hours after transfection, cells were detached non-enzymatically and incubated with LZ-TRAIL (5 μg/ml), a biotinylated anti-LZ monoclonal antibody (5 μg/ml), and phycoerythrin-conjugated streptavidin (1:400), before analysis by fluorescence-activated cell scanning (FACS). […]

Test [3] relates to TRAIL-induced apoptosis of Jurkat cells. Description: Blocking of TRAIL-induced apoptosis of Jurkat cells (MTT cell viability assay). In kind it is cell-based, human. As to conditions: LZ-TRAIL 13 ng/ml, test substance serially diluted from 10 μg/ml. How it is done:
TRAIL-R was tested for the ability to block TRAIL-induced apoptosis of Jurkat cells. The TRAIL-R employed in the assay was in the form of a fusion protein designated sTRAIL-R/Fc, which comprised the extracellular domain of human TRAIL-R, fused to the N-terminus of an Fc polypeptide derived from human IgG1.
A fusion protein designated TNF-R2—Fc, employed as a control, comprised the extracellular domain of the TNF receptor protein known as p75 or p80 TNF-R (Smith et al., Science 248:1019-1023, 1990; Smith et al. Cell 76:959-962, 1994), fused to an Fc polypeptide. A mouse monoclonal antibody that is a blocking antibody directed against human TRAIL, was employed in the assay as well.
Jurkat cells were incubated with varying or constant concentrations of LZ-TRAIL (the LZ-TRAIL fusion protein described in example 6), in the absence or presence of varying concentrations of sTRAIL-R-Fc, TNF-R2-Fc, or the TRAIL-specific monoclonal antibody. Cell death was quantitated using an MTT cell viability assay (MTT is 3-[4,5-dimethylthiazol-2-yl]-2,5-diphenyltetrazolium bromide), as previously described (Mosmann, J. Immunol. Methods 65:55-63, 1983). […]

On to `COC(=O)C[C@H](NC(=O)[C@H](C)NC(=O)[C@@H](NC(=O)OCc1ccccc1)C(C)C)C(=O)CF` [z-VAD-fmk, benzyloxycarbonyl-Val-Ala-Asp-fluoromethylketone, reference compound] (Cbz-Val-Ala-Asp(OMe)-CH2F), for which the “reduction of death of transfected cells expressing TRAIL-R” value in test [1] (10 μM in the culture medium) is recorded as “effectively reduced death”.

As to “LZ-TRAIL: leucine zipper peptide fused to the N-terminus of a soluble TRAIL polypeptide (amino acids 95-281 of human TRAIL)”, the “binding of LZ-TRAIL to transfected cells” value in test [2] is listed as “significantly enhanced binding”.

On to “sTRAIL-R/Fc: extracellular domain of human TRAIL-R, fused to the N-terminus of an Fc polypeptide derived from human IgG1”, for which the “blocking of TRAIL-induced apoptosis (percent cell death)” value in test [3] is on record as “blocked TRAIL-induced apoptosis in a dose dependent fashion”; in test [3] (listed as soluble TRAIL-R/Fc fusion protein) it was “blocked TRAIL-induced apoptosis”.

B1: baculovirus p35: 35-kilodalton protein encoded by Autographa californica nuclear polyhedrosis virus, expressed from pDC409-p35 (protein, UniProt P08160 1-299, looked up)
Early 35 kDa protein: MCVIFPVEIDVSQTIIRDCQVDKQTRELVYINKIMNTQLTKPVLMMFNISGPIRSVTRKNNNLRDRIKSKVDEQFDQLERDYSDQMDGFHDSIKYFKDEHYSVSCQNGSVLKSKFAKILKSHDYTDKKSIEAYEKYCLPKLVDERNDYYVAVCVLKPGFENGSNQVLSFEYNPIGNKVIVPFAHEINDTGLYEYDVVAYVDSVQFDGEQFEEFVQSLILPSSFKNSEKVLYYNEASKNKSMIYKALEFTTESSWGKSEKYNWKIFCNGFIYDKKSKVLYVKLHNVTSALNKNVILNTIK
B1: in test [1] (co-transfected, threefold excess of expression vector), the “reduction of death of transfected cells expressing TRAIL-R” value was “effectively reduced death”.
